Target: T1, Sh-PPase (Mn-Sh-PPase; Mg-Sh-PPase) (Shewanella sp. AS-11, UniProt L8AXY8)
T1 construct: gene ppia; recombinant full-length (no tag stated), expressed in E. coli BL21 (DE3); ammonium sulphate fractionation, anion exchange, gel filtration; family II PPases are homodimers
T1 sequence (L8AXY8 2-308): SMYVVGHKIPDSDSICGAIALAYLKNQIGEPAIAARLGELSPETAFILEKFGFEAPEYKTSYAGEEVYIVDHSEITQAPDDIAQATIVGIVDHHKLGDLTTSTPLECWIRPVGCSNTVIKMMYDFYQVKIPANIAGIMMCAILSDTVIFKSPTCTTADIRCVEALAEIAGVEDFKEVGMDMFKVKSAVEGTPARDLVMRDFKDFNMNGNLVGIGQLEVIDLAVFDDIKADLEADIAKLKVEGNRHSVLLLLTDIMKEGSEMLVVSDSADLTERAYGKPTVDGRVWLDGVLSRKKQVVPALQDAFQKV
Assay: CW X-band EPR of the di-Mn centre
Format: binding
Conditions: Mn-activated enzyme, pH 7.5, frozen solution

O=P(O)(O)CP(=O)(O)O [PCP, methylendiphosphonic acid]
CW X-band EPR of the di-Mn centre (substrate analogue, di-Mn centre signal lost on binding (inferred binding)): binding of PCP induced the decomposition of the di-Mn centre

O=S(=O)(O)O [sulphate]
CW X-band EPR of the di-Mn centre (added as ammonium sulphate, substrate binding site): sulphate ion bound correctly to the substrate binding site
